This passage reports Kd results from article PMC7527723, “Sex Steroids Induce Membrane Stress Responses and Virulence Properties in Pseudomonas aeruginosa” (mBio, 2020).

What is called Kd is the concentration at which binding is half-saturated. High values mean a looser complex, low ones a tighter complex.

The target of assay [1] is T1, Vfr (Pseudomonas aeruginosa, UniProt P55222).
T1 construct: purified protein
The assay is described as follows: biochemical. It is filed as binding.

Assay [2] addresses T2, Pseudomonas aeruginosa MucB protein (Pseudomonas aeruginosa, UniProt P38108 22-316).
T2 sequence: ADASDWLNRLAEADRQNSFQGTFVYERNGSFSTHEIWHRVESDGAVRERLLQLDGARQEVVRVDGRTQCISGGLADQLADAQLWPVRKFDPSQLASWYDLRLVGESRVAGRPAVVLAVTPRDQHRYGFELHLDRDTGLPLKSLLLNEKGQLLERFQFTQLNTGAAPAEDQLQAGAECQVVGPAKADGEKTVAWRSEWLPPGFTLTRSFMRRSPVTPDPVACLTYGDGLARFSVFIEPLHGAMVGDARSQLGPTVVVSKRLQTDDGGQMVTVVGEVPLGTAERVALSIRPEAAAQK
Nature of the assay: SPR; purified MucB subjected to MucA binding (control); which partner was immobilised, buffer and temperature are not told in the text shown. To be noted: both partners purified.

T1 sequence (P55222 whole entry): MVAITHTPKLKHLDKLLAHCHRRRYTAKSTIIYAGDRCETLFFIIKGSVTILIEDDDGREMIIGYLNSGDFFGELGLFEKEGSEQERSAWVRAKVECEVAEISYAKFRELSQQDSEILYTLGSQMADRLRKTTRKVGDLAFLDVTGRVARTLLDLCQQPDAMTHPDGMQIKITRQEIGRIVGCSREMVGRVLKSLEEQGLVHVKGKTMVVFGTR

As for `C[C@]12CC[C@@H]3c4ccc(O)cc4CC[C@H]3[C@@H]1C[C@@H](O)[C@@H]2O` [E3, estriol], the Kd in assay [1] was in the range of 0.75 to 0.782 mM.

In assay [1], `C[C@]12CC[C@H]3[C@@H](CCC4=CC(=O)CC[C@@]43C)[C@@H]1CC[C@@H]2O` [T, testosterone] returned a Kd of 1.7 to 1.8 mM.

B1: MucA (natural protein)
chain: YNQNDALPQMAQQGTTPQIALPQVKGPAVLAGYSEEQGAPQVITNSSSSDTRWHEQRLPIYLRQHVQQSAVSGTESALPYARAASLENR
notes: also called anti-sigma factor
B1 came in with a dissociation constant (Kd) in assay [2] of 2930 nM.
